Measurements as given in publication PMC4007625, “A phase I study of AST1306, a novel irreversible EGFR and HER2 kinase inhibitor, in patients with advanced solid tumors” (Journal of Hematology & Oncology, 2014).

What was measured:
[1] = Phase I dose escalation: safety, tolerability, DLT and MTD (CTC-AE 4.03); format: in vivo
Method: This was the first-in-human phase I dose-escalation study of AST1306 for patients with advanced solid tumors. AST1306 was orally administered without food for one day followed by two days off to evaluate single dose PK profiles. After that, it was continuously administered for 21 days and two days off to assess multiple dose PK profiles and safety. […] Three times daily in three dose levels (800 mg TID, 1000 mg TID and 1200 mg TID) were explored subsequently. Treatment was then repeated at the same dose level in 28-day cycles until unacceptable toxicities, disease progression or the patient’s withdrew from the study. PK extension study was performed to enroll additional patients up to at least eight patients per dose cohort in three dose levels (MTD, one or two doses level lower than the MTD) for further evaluation of PK profiles.
Safety and tolerability were evaluated and assessed by investigators throughout the study and up to 14 days after the final dose of AST1306 according to Common Terminology Criteria for Adverse Events (CTC-AE) version 4.03. Laboratory evaluations and electrocardiogram were conducted at screening; every week of first and second cycles; every two weeks of third cycle and every four weeks of subsequent cycles. AEs assessment, vital signs, physical examinations and echocardiography were performed.
A modified Fibonacci 3 plus 3 dose-escalation design was employed. Tolerability was evaluated according to the type and frequency of DLTs observed from single-day-dose administration until day 21 of the first cycle of continuous dosing. DLTs were defined as follows: grade ≥ 3 non-hematologic toxicity (except nausea, vomiting and diarrhea); grade ≥ 3 nausea, vomiting or diarrhea uncontrollable with standard supportive care; grade 4 neutropenia or febrile neutropenia; and grade 4 thrombocytopenia or bleeding requiring a platelet transfusion. If two or more patients experienced DLTs in three to six patients for each cohort, dose escalation was terminated and the dose level below was defined as the MTD.
Dose interruptions were permitted for no more than 14 days for patients experiencing DLTs in the first cycle or intolerable toxicities in the subsequent cycles, with treatment resumed at the next lower dose level upon adequate recovery (grade ≤ 1). More than two dose level reductions were not allowed.
Patients in the PK extension study and food-effect study were also included to evaluate safety further.

[2] = tested on: EGFR; design: method as in PMID 21789172, PMID 18408761, PMID 15728811, PMID 15737014, PMID 17085664; details: cited from earlier work
[3] = tested on: EGFR T790M mutant; design: method as in PMID 21789172, PMID 18408761, PMID 15728811, PMID 15737014, PMID 17085664; details: cited from earlier work
[4] = tested on: human tumor xenograft models that expressed or overexpressed HER family members; design: method as in PMID 21789172; details: especially HER2 overexpression or EGFR T790M mutant tumors; cited from earlier work

For `C=CC(=O)Nc1ccc2ncnc(Nc3ccc(OCc4cccc(F)c4)c(Cl)c3)c2c1` [AST1306], the MTD ([1]; TID, continuous-dosing schedule, oral) was 1000 mg, the “Anorexia grade 3, treatment-related AE, patients” value ([1]; human, in vivo) was 0 and the “Fatigue grade 3, treatment-related AE, % of patients” value ([1]; human, in vivo) was 0%. The “Fatigue grade 3, treatment-related AE, patients” value ([1]; human, in vivo) was 0, the “Hand-foot syndrome grade 3, treatment-related AE, % of patients” value ([1]; human, in vivo) was 0% and the “Hand-foot syndrome grade 3, treatment-related AE, patients” value ([1]; human, in vivo) was 0. The “Proteinuria grade 3, treatment-related AE, % of patients” value ([1]; human, in vivo) was 0%, the “Proteinuria grade 3, treatment-related AE, patients” value ([1]; human, in vivo) was 0 and the “Vomiting grade 3, treatment-related AE, % of patients” value ([1]; human, in vivo) was 0%. For the same compound, the “Vomiting grade 3, treatment-related AE, patients” value ([1]; human, in vivo) was 0, the “discontinuation from treatment due to diarrhea, % of patients” value ([1]; human, in vivo) was 7% and the “discontinuation from treatment due to diarrhea, patients” value ([1]; human, in vivo) was 5. The “discontinuation from treatment due to hypokalemia, patients” value ([1]; human, in vivo) was 1, the “grade 3 drug-related abdominal pain, % of patients” value ([1]; human, in vivo) was 1.4% and the “grade 3 drug-related abdominal pain, patients” value ([1]; human, in vivo) was 1. The “grade 3 drug-related anemia, % of patients” value ([1]; human, in vivo) was 1.4%, the “grade 3 drug-related anemia, patients” value ([1]; human, in vivo) was 1 and the “grade 3 drug-related diarrhea, % of patients” value ([1]; human, in vivo) was 32.4%. For the same compound, the “grade 3 drug-related diarrhea, patients” value ([1]; human, in vivo) was 23, the “grade 3 drug-related elevated ALT or AST, % of patients” value ([1]; human, in vivo) was 4.2% and the “grade 3 drug-related elevated ALT or AST, patients” value ([1]; human, in vivo) was 3. For the same compound, the “grade 3 drug-related hypokalemia, % of patients” value ([1]; human, in vivo) was 1.4%, the “grade 3 drug-related hypokalemia, patients” value ([1]; human, in vivo) was 1 and the “grade 3 drug-related rash, % of patients” value ([1]; human, in vivo) was 1.4%. The “grade 3 drug-related rash, patients” value ([1]; human, in vivo) was 1, the “grade 3 study drug-related AEs, % of patients” value ([1]; human, in vivo) was 39.4% and the “grade 3 study drug-related AEs, patients” value ([1]; human, in vivo) was 28. For the same compound, the “grade 4 to 5 AEs” value ([1]; human, in vivo) was “no observed grade 4 to 5 AEs”, the “patients with serious AEs (SAE)” value ([1]; human, in vivo) was 8 and the “treatment-related diarrhea, % of patients” value ([1]; human, in vivo) was 85.9%. The “treatment-related diarrhea, patients” value ([1]; human, in vivo) was 61, the “treatment-related fatigue, % of patients” value ([1]; human, in vivo) was 19.7% and the “treatment-related fatigue, patients” value ([1]; human, in vivo) was 14. The “treatment-related rash, % of patients” value ([1]; human, in vivo) was 16.9%, the “treatment-related rash, patients” value ([1]; human, in vivo) was 12 and the “patients with DLT (grade 3 diarrhea)” value ([1]; human, in vivo, 21 days) was 5. For the same compound, the “recommended phase II dose (RP2D)” value ([1]; human, in vivo, po, 21 days) was 1000 mg, the “decline in LVEF” value ([1]; in vivo) was “no significant decline in LVEF” and the “patients with dose reductions (all due to diarrhea)” value ([1]; in vivo) was “Seven”. The “patients with study drug-related AEs” value ([1]; in vivo) was “Sixty-eight”, the “fold more potent than afatinib and dacomitinib” value ([2]; EGFR and HER2 IC50) was 5-15 fold and the IC50 ([2]; preclinical, read-out: IC50 inhibiting EGFR) was 0.5 nM. For the same compound, the “fold more potent than lapatinib” value ([3]; EGFR T790M mutant) was “approximately 500 fold”, the IC50 ([3]; preclinical) was 12 ± 2 nM and the “antitumor activity in xenograft models” value [4] was “showed antitumor activities”.
